The values that follow come from patent US12576097B2, “Anti-tumor effective component of Hedyotis diffusa, preparation method therefor and use thereof” (Guangdong New Ear Life Technology Co., Ltd., priority 2020, dated 2026).

In assay [1] the test system is Solid tumor cell line S180. Briefly: In-vivo anti-tumor experiment after S180 tumor inoculation in mice. Further details: species or system ICR mice. The note with it: 9 days; for relative tumor weight mean ± SD: S180 tumor-bearing ICR mice; for inhibition rate: vs model group. The procedure: Solid tumor cell line S180 cryopreservation tube were taken out from a liquid nitrogen tank and quickly placed into water at 37° C. with occasional shaking. After cryopreserved cell mother liquor was thawed, the lid edge of the cryopreservation tube was wiped with an alcohol swab. The thawed cell liquor was injected intraperitoneally into the peritoneal cavities of ICR mice by a syringe. The mice were kept at room temperature of 25±5° C., humidity of 60±10%, natural light, and free to ingest food and water. After about one week, ascites in the peritoneal cavities of the ICR mice were sucked by a syringe and injected into the peritoneal cavities of new ICR mice at a dose of 0.5 ml per mouse for passage for standby application.
ICR class II mice, weighing about 18-22 g. Feeding conditions: room temperature of 25±5° C., humidity of 60±10%, natural light, free intake of water, and all mice were kept in the feeding environment for adaptive feeding for four days, fasted for 12 h before the experiment, free intake of water.
The experimental instruments were placed in a clean table and sterilized for about 30 min by turning on a UV lamp. The mice that were injected with ascites (about one week) were sacrificed by cervical dislocation, and abdomens of the mice were wiped with an alcohol swab. A 20 ml syringe was selected to suck the ascites (milky white is preferred) from the mice. The sucked ascites were placed in a sterile vial, and the vial was placed in a small box with ice. A certain amount of ascites was sucked onto a counting plate and placed under a microscope for counting, and the number of the cells was 10^7 as a base for tumor inoculation (1:2) and passage (1:5).
The adaptively fed ICR class II male mice were taken, and wiped with an alcohol swab on the armpit areas of the right forelimbs. The axillary cavities of the right forelimbs of the mice were inoculated with diluted mice ascite cell (10^7 cells) suspension at 0.2 ml per mouse. After tumor inoculation, the mice were fed and watered freely. One hour later, the drug was administered by gavage.
(§1) 168 ICR class II male mice with a weight of 18-22 g were used. The mice were kept under the conditions of the item 2.2 for adaptive feeding for four days before the experiment. After four days, the mice were weighed and their autonomy was measured. […] Each mouse was inoculated with S180 tumor according to the method in the item 2.3, and the drug was administered by gavage after inoculation.
(§2) A appropriate amount of test samples were weighed precisely, and prepared into test sample solutions having the desired concentrations by using a 5 vol % ethanol aqueous solution as a solvent, i.e.: the effective parts of 5 mg/kg, 10 mg/kg and 20 mg/kg correspond to the test sample solutions of the groups of the effective part 5, effective part 10, and effective part 20, respectively; E-6-O-(p-coumaroyl)scandoside methyl ester of 2.5 mg/kg, 5 mg/kg, 10 mg/kg, and 20 mg/kg correspond to the test sample solutions of the groups of methyl ester 2.5, methyl ester 5, methyl ester 10 and methyl ester 20, respectively; kaempferol-3-O-[2-O-(6-O-E-feruloyl)-β-D-glucopyranosyl]-β-D-galactopyranose of 2.5 mg/kg, 5 mg/kg, 10 mg/kg and 20 mg/kg correspond to the test sample solutions of the groups of kaempferol 2.5, kaempferol 5, kaempferol 10 and kaempferol 20, respectively. […] Each mouse was administered by gavage at a dose of 0.2 ml/10 g. During the administration period, the mice were fed at 3 g/mouse and ingested water and food freely. All mice were continuously administered for 9 days, and sacrificed by decapitation on day 10. Blood, tumor, liver, spleen, and thymus of mice were collected. The blood collected was placed in a low temperature environment and sent out for blood check. The weight of the tumor, liver, spleen, and thymus and the size of the tumor were recorded.

A short description of assay [2]: Spleen and thymus weight and blood count of S180 tumor-bearing mice. Format: in vivo, ICR mice. To be noted: 5 mg/kg. The procedure: as §1, §2
The recorded results were expressed as mean plus or minus standard deviation (X±SD), and the data were analyzed by using statistical software SPSS 11.5 software.

Entries after “also recorded” stand apart in the source; their conditions may differ. Marks after values point to notes of the source that are not given here.

As to `COC(=O)C1=COC(O[C@@H]2O[C@H](CO)[C@@H](O)[C@H](O)[C@H]2O)C2C(CO)=CC(OC(=O)/C=C/c3ccc(O)cc3)C12` (stereo partly drawn) [Methyl ester, E-6-O-(p-coumaroyl)scandoside methyl ester], the “relative tumor weight mean ± SD” value in assay [1] (2.5 mg/kg by gavage) is reported as 6.49 ± 1.56* 10^−2; in assay [1] (5 mg/kg by gavage), 4.24 ± 2.24* 10^−2; in assay [1] (10 mg/kg by gavage), 5.81 ± 2.19* 10^−2; in assay [1] (20 mg/kg by gavage), 5.98 ± 1.19* 10^−2. The inhibition rate in assay [1] (2.5 mg/kg by gavage) came out at 21.92%; in assay [1] (5 mg/kg by gavage), 48.97%; in assay [1] (5 mg/kg by gavage, listed as E-6-O-(p-coumaroyl)scandoside methyl ester), 48.97%; in assay [1] (10 mg/kg by gavage), 30.17%; in assay [1] (20 mg/kg by gavage), 28.06%. In assay [1] (dose with the highest inhibition rate, gavage), the “best dose for tumor inhibition” value is given as 5 mg/kg. The “number of erythrocytes compared among groups” value in assay [2] is given as “highest”. Further, the “relative spleen weight compared with model group” value in assay [2] (FIG. 5) was “increase”. In assay [2] (FIG. 6), the “relative thymus weight compared with model group” value is recorded as “increase”. The “number of leukocytes compared with model group” value in assay [2] (FIG. 7) is listed as “significant increase; also recorded: highest”. In assay [2] (FIG. 8), the “percentage of lymphocytes compared with model group” value is “increased most significantly”.
